Results taken from ChEMBL document CHEMBL1201862, “PubChem BioAssay data set” (2004).
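Exposure lasted 48 hours, with cells grown in 96-well plates and compounds tested at five concentrations. GI50 marks 50% less growth.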 The source made the active and inactive calls. Rule as the data show it: active = GI50 up to about 1.1 µM and inactive = higher.

Experiments:
Experiment in all cases: inhibition of tumour cell growth, NCI panel, 48 h
EKVX = test system: EKVX
NCI-H522 = test system: NCI-H522
T47D = test system: T47D
A549 = test system: A549
Hs-578T = test system: Hs-578T
NCI-H23 = test system: NCI-H23
U-251 = test system: U-251
HOP-62 = test system: HOP-62
DU-145 = test system: DU-145
SF-268 = test system: SF-268
MCF7 = test system: MCF7
SK-OV-3 = test system: SK-OV-3
PC-3 = test system: PC-3
ACHN = test system: ACHN
KM12 = test system: KM12
UO-31 = test system: UO-31
UACC-257 = test system: UACC-257
SK-MEL-2 = test system: SK-MEL-2
A498 = test system: A498

Measured: GI50

CCOC(=O)C(NC(=O)c1ccccc1)(N1CCOCC1)C(F)(F)F (centres undefined)
inactive: EKVX > 100 µM | NCI-H522 > 100 µM | T47D > 100 µM | A549 > 100 µM | Hs-578T > 100 µM | NCI-H23 > 100 µM | U-251 > 100 µM | HOP-62 > 100 µM | DU-145 > 100 µM | SF-268 > 100 µM | MCF7 > 100 µM | SK-OV-3 > 100 µM | PC-3 > 100 µM | ACHN > 100 µM | KM12 > 100 µM | UO-31 > 100 µM | UACC-257 > 100 µM | SK-MEL-2 > 100 µM

COC(=O)C[C@@H]1C(C)(C)[C@@H]2O[C@@]34C[C@@H]2C(=O)[C@]1(C)[C@H]3CC[C@@]1(C)[C@H](c2ccoc2)OC(=O)C[C@]14O
inactive: EKVX > 100 µM | NCI-H522 > 100 µM | T47D > 100 µM | A498 > 100 µM | A549 > 100 µM | NCI-H23 > 100 µM | U-251 > 100 µM | HOP-62 > 100 µM | DU-145 > 100 µM | SF-268 > 100 µM | MCF7 > 100 µM | SK-OV-3 > 100 µM | PC-3 > 100 µM | ACHN > 100 µM | KM12 > 100 µM | UACC-257 > 100 µM | SK-MEL-2 > 100 µM

C1=C[C@@H]2c3ccc4cnccc4c3NC[C@@H]2C1
inactive: EKVX 16.8 µM | T47D > 100 µM | A498 33.6 µM | A549 > 100 µM | Hs-578T 46.8 µM | NCI-H23 > 100 µM | U-251 > 100 µM | HOP-62 > 100 µM | DU-145 > 100 µM | SF-268 > 100 µM | MCF7 > 100 µM | SK-OV-3 > 100 µM | PC-3 > 100 µM | ACHN > 100 µM | KM12 86.3 µM | UO-31 74.3 µM | UACC-257 > 100 µM

CC1CC[C@@]2(OC1)OC1C[C@H]3[C@@H]4C/C(=N\N(C)C)[C@@]5(O)CC(O)CC[C@]5(C)[C@H]4CC[C@]3(C)C1[C@@H]2C (some centres undefined)
inactive: T47D 31.5 µM | A498 34.7 µM | A549 48.6 µM | Hs-578T 33.3 µM | NCI-H23 30.5 µM | U-251 37.2 µM | HOP-62 41.3 µM | DU-145 > 100 µM | SF-268 58.7 µM | MCF7 39.1 µM | SK-OV-3 76.6 µM | PC-3 33.7 µM | ACHN 73.3 µM | KM12 29.3 µM | UO-31 55.5 µM | UACC-257 67.5 µM | SK-MEL-2 36.7 µM

Cc1nn(C(=O)Cc2ccccc2)c2c1C(c1ccc(O)cc1)SC(=N)N2 (centres undefined)
inactive: EKVX > 100 µM | NCI-H522 > 100 µM | T47D > 100 µM | A498 > 100 µM | A549 > 100 µM | Hs-578T > 100 µM | NCI-H23 > 100 µM | HOP-62 > 100 µM | DU-145 > 100 µM | SF-268 > 100 µM | MCF7 > 100 µM | SK-OV-3 > 100 µM | PC-3 > 100 µM | ACHN > 100 µM | KM12 > 100 µM | UO-31 > 100 µM | UACC-257 > 100 µM

O=C(c1cc(Cl)ccc1Cl)N1CCN(C(=O)c2cc(Cl)ccc2Cl)CC1
inactive: EKVX > 100 µM | NCI-H522 34.4 µM | T47D 48.8 µM | A498 27 µM | A549 > 100 µM | Hs-578T > 100 µM | NCI-H23 > 100 µM | U-251 > 100 µM | HOP-62 38.8 µM | DU-145 > 100 µM | SF-268 > 100 µM | MCF7 > 100 µM | PC-3 > 100 µM | ACHN 94.4 µM | KM12 > 100 µM | UO-31 > 100 µM | UACC-257 > 100 µM

O=C(NN=C1NCCCN1)c1ccco1
inactive: EKVX > 100 µM | NCI-H522 > 100 µM | T47D > 100 µM | A549 > 100 µM | Hs-578T > 100 µM | NCI-H23 > 100 µM | U-251 > 100 µM | HOP-62 > 100 µM | DU-145 > 100 µM | SF-268 > 100 µM | MCF7 > 100 µM | SK-OV-3 > 100 µM | PC-3 > 100 µM | ACHN > 100 µM | KM12 > 100 µM | UO-31 > 100 µM | UACC-257 > 100 µM | SK-MEL-2 > 100 µM

CCOC(=O)c1c(SCC#N)n(-c2ccccc2)c(=S)n(-c2ccccc2)c1=O
inactive: EKVX 36.3 µM | NCI-H522 34.4 µM | T47D 44 µM | A549 39.4 µM | Hs-578T 28.1 µM | NCI-H23 45.7 µM | U-251 33 µM | HOP-62 88.1 µM | DU-145 > 100 µM | SF-268 55.8 µM | MCF7 37.8 µM | SK-OV-3 35.9 µM | PC-3 18.8 µM | ACHN 28.1 µM | KM12 47 µM | UO-31 37.5 µM | UACC-257 61.2 µM | SK-MEL-2 39.5 µM

O=C1C(=Cc2ccc(O)cc2)N=C(c2ccccc2)N1n1c(-c2ccccc2)nc2ccccc2c1=O
inactive: EKVX > 100 µM | NCI-H522 50 µM | T47D 49.8 µM | A549 > 100 µM | Hs-578T 81.5 µM | NCI-H23 71.6 µM | HOP-62 > 100 µM | DU-145 > 100 µM | SF-268 > 100 µM | MCF7 30.9 µM | SK-OV-3 > 100 µM | PC-3 34.8 µM | KM12 > 100 µM | UO-31 > 100 µM | UACC-257 > 100 µM

Cc1cc(C)nc(NC(=S)Nc2cccc(Cl)c2)c1
inactive: EKVX > 100 µM | T47D > 88.3 µM | A498 > 47.3 µM | A549 20.8 µM | Hs-578T > 100 µM | NCI-H23 > 100 µM | U-251 > 100 µM | HOP-62 > 75.7 µM | DU-145 > 100 µM | SF-268 > 100 µM | SK-OV-3 > 100 µM | PC-3 > 100 µM | ACHN 28.1 µM | KM12 > 100 µM | UO-31 > 100 µM | UACC-257 > 100 µM | SK-MEL-2 > 100 µM

O=S(=O)(O)c1ccc2c(/N=N\c3ccc(F)cc3)c(O)c(S(=O)(=O)O)cc2c1
inactive: EKVX > 100 µM | NCI-H522 > 100 µM | T47D > 100 µM | A498 > 100 µM | A549 > 100 µM | Hs-578T > 100 µM | NCI-H23 > 100 µM | U-251 > 100 µM | HOP-62 > 100 µM | DU-145 > 100 µM | SF-268 > 100 µM | SK-OV-3 > 100 µM | PC-3 > 100 µM | ACHN > 100 µM | KM12 > 100 µM | UO-31 > 100 µM | UACC-257 > 100 µM | SK-MEL-2 > 100 µM
